N#Cc1ccccc1-c1ccc(CBr)cc1
solubility (mole fraction)
Conditions	278.15 K	283.15 K	288.15 K	293.15 K	298.15 K	303.15 K	308.15 K	313.15 K
in acetone	0.0151	0.0169	0.0214	0.0241	0.0306	0.0352	0.0424	0.0492
in n-propanol	0.00052	0.00075	0.00099	0.00126	0.00181	0.00226	0.0027	0.00343

From BigSolDB 2.1
